Test results: US9993480B2, “mTOR/JAK inhibitor combination therapy” (NOVARTIS PHARMA AG, priority 2011, dated 2018)
Values joined by “and” are separate entries in the source; they are usually repeats but may differ in a detail not shown here. Identical values can stand only once. “Also recorded” adds a separate entry of the source. Like-named read-outs stand apart in the source and are kept apart here.

What was measured:
HEL cells [1] = experiment: Clonogenic assay in agar; details: Homo sapiens, 168 h, read-out: IC50, clonogenic assay
[2] = test system: JAK2, STAT5, and 4EBP1 in SET2 cells; experiment: Western blot of mTOR and JAK/STAT signaling; assay type: cell-based, human
Experimental: (§1) Cells were resuspended in RIPA lysis buffer (50 mM pH 7.4 Tris-HCl, 150 mM NaCl, 1% NP-40, 1 mMEDTA) containing a proteinase inhibitor cocktail (Halt Protease Inhibitor Cocktail Kit, PIERCE, Rockford, Ill., US) and subjected to sodium dodecyl sulphate polyacrylamide gel electrophoresis separation and western blotting onto Immunoblot PVDF membrane (BioRad, Hercules, Calif., US), according to standard protocols.
SET2 cells were incubated for 24 h with increasing concentrations of the drugs, and the level of total and phosphorylated JAK2, STAT5, and 4EBP1 was analyzed by western blot. Tubulin was used for loading normalization.

[3] = test system: Peripheral Blood mononuclear cells from PV patients; experiment: EEC colony formation assay; assay type: cell-based; details: Homo sapiens
K562 cells [4] = experiment: Clonogenic assay in agar; details: Homo sapiens, K562, 168 h, read-out: IC50, clonogenic assay
SET2 cells [5] = experiment: Proliferation inhibition assay (WST-1); assay type: cell-based, human
Description: (§2) The HEL, SET2 and K562 human cell lines were purchased from the German Collection of Microorganisms and Cell Cultures (DSMZ, Braunschweig, Germany). Murine BaF/3 and BaF/3-EPOR cells expressing JAK2 wild-type (wt) or JAK2V617F were donated by R. Skoda (Basel, Switzerland).

SET2 cells [6] = experiment: Apoptosis by Annexin V flow cytometry; assay type: cell-based, human; details: SET2 cells exposed for 48 h
Description: Results are expressed ad percent viable cells compared to control wells containing vehicle (DMSO) only. The fraction of necrotic cells was identified as the double-positive Annexin V/propidium iodide cells.

SET2 cells [7] = experiment: Clonogenic assay in agar
K562 cells [8] = experiment: Proliferation inhibition assay (WST-1); assay type: cell-based, human
Description: as §2

HEL cells [9] = experiment: Proliferation inhibition assay (WST-1); assay type: cell-based, human
Description: as §2

[10] = test system: BaF/3-EPOR cells expressing JAK2 wild-type; experiment: Proliferation inhibition assay (WST-1); assay type: cell-based, murine; details: Mus musculus; BaF/3-EPOR WT; EPO in culture medium
Description: as §2

[11] = test system: BaF/3 cells expressing JAK2V617F; experiment: Proliferation inhibition assay (WST-1); assay type: cell-based, murine; details: Mus musculus, BaF3; BaF/3 V617F, absence of IL-3
Description: as §2

[12] = test system: BaF/3-EPOR cells expressing JAK2V617F; experiment: Proliferation inhibition assay (WST-1); assay type: cell-based, murine
Description: as §2

[13] = test system: BaF/3 cells expressing JAK2 wild-type; experiment: Proliferation inhibition assay (WST-1); assay type: cell-based, murine; details: Mus musculus, BaF3; BaF/3 WT; mIL-3 in culture medium
Description: as §2

[14] = test system: Ba/F3 epoR JAK2 V617F cells; experiment: Clonogenic assay in agar; details: Mus musculus
[15] = test system: CD34+ cells from MPN patients; experiment: Clonogenic assay with JAK2V617F single-colony genotyping; assay type: cell-based, human; details: for % decrease V617F: RAD001 50 nM vs without
Experimental: Samples of peripheral blood (PB) or bone marrow (BM) were obtained from patients diagnosed with PV or PMF (2008 WHO criteria) under a protocol approved by Institutional Review Board of Azienda Ospedaliera-Universitaria Careggi and after obtaining an informed consent. Healthy donors of hematopoietic stem cells provided informed consent to donate excess CD34^+ cells. Research was carried out according to the principles of Declaration of Helsinki. CD34^+ cells were immunomagnetically selected as described. The JAK2V617F mutational status was determined by a quantitative real-time PCR assay in granulocytes.
BM mononuclear cells from MPN patients or control subjects were plated at 1×10^5/mL in methylcellulose (MethoCult; StemCell Technologies, Vancouver, Canada) supplemented with SCF 50 ng/mL, IL-3 10 ng/mL, IL-6 10 ng/mL, GM-CSF 10 ng/mL, G-CSF 10 ng/mL and EPO 3 U/mL for the growth of BFU-E and CFU-GM. EEC assay was performed by plating 2.5×10^5/mL PB mononuclear cells from PV patients in methylcellulose containing leukocyte-conditioned medium without EPO (StemCell Technol., cat. No. #04531). For the growth of CFU-Mk, 5×10^4/mL CD34^+ cells were plated in a 24-well plate in Megacult Collagen and medium with lipids (StemCell Technol.) supplemented with Thrombopoietin 50 ng/mL, IL-3 10 ng/mL, IL-6 10 ng/mL. Colonies were enumerated on day 14 according to standard criteria.
For JAK2V617F single-colony genotyping an allele-specific PCR assay was used. Well-separated colonies (at least 40 colonies per point) were individually plucked off the semisolid medium in 5 μL DNase/RNase-free water, lysed at 95° C. for 5 minutes, and subjected to PCR amplification and gel electrophoresis.

HEL cells [16] = experiment: Cell cycle distribution analysis by flow cytometry; assay type: cell-based, human; details: at IC50 concentration
[17] = test system: Ba/F3 epoR JAK2 wild-type cells; experiment: Clonogenic assay in agar; details: Mus musculus, BaF3, 168 h, read-out: IC50, clonogenic assay
[18] = test system: 4E-BP1 and STAT5 in Ba/F3 and Ba/F3-EPOR cells; experiment: Western blot of 4E-BP1 and STAT5 phosphorylation; assay type: cell-based, murine
Experimental: as §1
To better characterize the correlation between JAK2V617F mutation and mTOR activation, as well as the consequences of mTOR inhibition on STAT5 phosphorylation, BA/F3 and Ba/F3-EPOR cells were used. First, it was observed that 4E-BP1 was minimally phosphorylated in JAK2 wt Ba/F3 and Ba/F3-EPOR cells deprived of cytokines, while it was hyper-phosphorylated in V617F cells, supporting previous data on Akt constitutive activation in JAK2V617F-mutated cells. […] STAT5 phosphorylation was greater in V617F cells compared to IL-3- or EPO-deprived JAK2 wt Ba/F3 or Ba/F3-EPOR cells, and it did increase substantially after cytokine exposure.

Ba/F3 JAK2 V617F cells = experiment: Clonogenic assay in agar; details: Mus musculus, BaF3, 168 h, read-out: IC50, clonogenic assay
UKE-1 cells = experiment: Clonogenic assay; assay type: cell-based; details: compared with K562
SET2 cells [19] = experiment: Cell cycle distribution analysis by flow cytometry; assay type: cell-based, human; details: at IC50 concentration
[20] = Homo sapiens, SET-2, read-out: IC50 of Cmp A in drug combination with PP242
[21] = Homo sapiens, SET-2, read-out: IC50 of Cmp A in drug combination with RAD001
[22] = Homo sapiens, SET-2, SET2, individual drug, read-out: IC50, proliferation inhibition
[23] = SET2, 24 h, increasing concentrations

## N#CC[C@H](C1CCCC1)n1cc(-c2ncnc3[nH]ccc23)cn1 [Compound A, (3R)-3-cyclopentyl-3-[4-(7H-pyrrolo[2,3-d]pyrimidin-4-yl)-1H-pyrazol-1-yl]propanenitrile]
HEL cells [1]
  IC50: 0.374 ± 0.177 µM
[2]
  phosphorylated JAK2: markedly and dose-dependently reduced phosphorylation
  phosphorylation of 4E-BP1: unaffected
  phosphorylation of STAT5: markedly and dose-dependently reduced phosphorylation
[3]; PBMC, read-out: IC50, clonogenic potential (EEC)
  IC50: 0.0018 ± 0.001 µM
[3]; PBMC, read-out: IC50 of Cmp A in drug combination with PP242
  IC50: 0.0001 µM
[3]; PBMC, read-out: IC50 of Cmp A in drug combination with RAD001
  IC50: 0.0002 µM
K562 cells [4]
  IC50: > 15 µM
SET2 cells [5]; [20]
  IC50: 0.047 µM
SET2 cells [5]; [21]
  IC50: 0.029 µM
SET2 cells [6]
  cell apoptosis (Annexin V-positive cells): dose-dependently potent inducers of cell apoptosis; also recorded: potently induced cell apoptosis
SET2 cells [7]; [20]
  IC50: 0.0076 µM
SET2 cells [7]; [21]
  IC50: 0.004 µM

## Cc1[nH]c2ccccc2c1CCNCc1ccc(/C=C/C(=O)NO)cc1 [Panobinostat]
K562 cells [8]; Homo sapiens
  IC50: 0.031 ± 0.008 µM
HEL cells [9]; Homo sapiens
  IC50: 0.008 ± 0.003 µM
SET2 cells [5]; [22]
  IC50: 0.007 ± 0.002 µM

## CO[C@H]1C[C@@H]2CC[C@@H](C)[C@@](O)(O2)C(=O)C(=O)N2CCCC[C@H]2C(=O)O[C@H]([C@H](C)C[C@@H]2CC[C@@H](OCCO)[C@H](OC)C2)CC(=O)[C@H](C)/C=C(\C)[C@@H](O)[C@@H](OC)C(=O)[C@H](C)C[C@H](C)/C=C/C=C/C=C/1C [RAD001, Everolimus]
HEL cells [1]
  IC50: 0.085 ± 0.03 µM
[2]; [23]
  phosphorylated JAK2: unaffected
  phosphorylation of 4E-BP1: dose-dependently reduced phosphorylation; also recorded: inhibited the phosphorylation
  phosphorylation of STAT5: dose-dependently reduced phosphorylation; also recorded: appreciable decrease of STAT5 phosphorylation
  total JAK2: unaffected
[10]
  IC50: > 10 µM
[11]
  IC50: 0.01 ± 0.004 µM
[12]; BaF/3-EPOR V617F + EPO, read-out: IC50, proliferation inhibition
  IC50: 1.23 µM
[12]; BaF/3-EPOR V617F, absence of EPO, individual drug, read-out: IC50, proliferation inhibition
  IC50: 0.651 ± 0.05 µM
[12]; Mus musculus, BaF/3-EPOR V617F + EPO, read-out: IC50, proliferation inhibition
  IC50: 1.21 µM
[12]; Mus musculus, JAK2V617F Ba/F3-EPOR, proliferation, median of at least 3 experiments, read-out: IC50 of the mTOR inhibitor in drug combination with Cmp A
  IC50: 0.363 µM
[13]
  IC50: 2.6 µM
[14]; BaF3, 168 h, read-out: IC50, clonogenic assay
  IC50: 0.004 ± 0.002 µM
[14]; BaF3, read-out: IC50 of the mTOR inhibitor in drug combination with Cmp A
  IC50: 0.0011 µM
[15]; Pat. # 1, RAD001 50 nM
  JAK2 genotype V617F colonies (%): 6%
  JAK2 genotype Wild-type colonies (%): 94%
[15]; Pat. # 1
  % decrease V617F: 70%
[15]; Pat. # 2, RAD001 50 nM
  JAK2 genotype V617F colonies (%): 40%
  JAK2 genotype Wild-type colonies (%): 60%
[15]; Pat. # 2
  % decrease V617F: 15%
[15]; Pat. # 3, RAD001 50 nM
  JAK2 genotype V617F colonies (%): 57%
  JAK2 genotype Wild-type colonies (%): 43%
[15]; Pat. # 3
  % decrease V617F: 21%
[15]; Pat. # 4, RAD001 50 nM
  JAK2 genotype V617F colonies (%): 40%
  JAK2 genotype Wild-type colonies (%): 58%
[15]; Pat. # 4
  % decrease V617F: 17%
[15]; Pat. # 5, RAD001 50 nM
  JAK2 genotype V617F colonies (%): 9%
  JAK2 genotype Wild-type colonies (%): 91%
[15]; Pat. # 5
  % decrease V617F: 72%
[15]; mean of 5 patients, RAD001 50 nM
  % decrease V617F, Mean ± SD: 39% and 39 ± 29%
HEL cells [16]
  cell cycle effect: cell cycle arrest of SET2 and HEL cells in the G0/G1 phase
[3]; PBMC, read-out: IC50 of the mTOR inhibitor in drug combination with Cmp A
  IC50: 0.0019 µM
[3]; PBMC from PV patients, individual drug, read-out: IC50, clonogenic potential (EEC)
  IC50: 0.015 ± 0.01 µM
[17]
  IC50: 0.022 ± 0.01 µM
[18]; evident at 60 min, up to 24 h, not shown
  STAT5 phosphorylation: significantly downregulated
[18]; persisted up to at least 24 h, data not shown
  4E-BP1 phosphorylation: marked inhibition
K562 cells [4]
  IC50: 10 µM
Ba/F3 JAK2 V617F cells
  IC50: 0.006 ± 0.002 µM
UKE-1 cells
  clonogenic potential: impaired the clonogenic potential
K562 cells [8]; Homo sapiens
  IC50: 16 µM
HEL cells [9]; Homo sapiens
  IC50: 14 µM
SET2 cells [5]; Homo sapiens, SET-2, read-out: IC50 of the mTOR inhibitor in drug combination with Cmp A
  IC50: 0.0031 µM
SET2 cells [5]; [22]
  IC50: 17 µM
SET2 cells [6]
  cell apoptosis (Annexin V-positive cells): largely ineffective in inducing cell death; also recorded: did not induce cell death
SET2 cells [19]
  cell cycle effect: cell cycle arrest of SET2 and HEL cells in the G0/G1 phase
SET2 cells [7]; Homo sapiens, SET-2, read-out: IC50 of the mTOR inhibitor in drug combination with Cmp A, SET2, clonogenic agar assay, median of at least 3 experiments
  IC50: 0.007 µM
SET2 cells [7]; read-out: IC50, clonogenic assay, SET2, colonies day 7, individual drug
  IC50: 0.13 µM and 0.044 µM

## NC(=O)NO [HuOH, hydroxyurea]
[2]; [23]
  phosphorylation of 4E-BP1: did not affect
  phosphorylation of STAT5: did not affect
K562 cells [8]
  IC50: 4910 µM
HEL cells [9]
  IC50: 410 µM
SET2 cells [5]; SET2, read-out: IC50, proliferation inhibition
  IC50: 330 µM
SET2 cells [6]
  cell apoptosis (Annexin V-positive cells): induced dose-dependent cell apoptosis
